Values after ≈ are worked out from the molar mass of the structure shown.
Key:
Format in all cases: cell-based
fresh morning saliva = experiment: In-vitro test to reduce bad breath (liquid medium inoculated with fresh morning saliva, sniffed by a panel)
Protocol: In-Vitro Test to Reduce Bad Breath
The test is based on the work of Goldberg and Rosenberg (Production of Oral Malodor in an in vitro System, S. Goldberg and M. Rosenberg, pp.143 -150, in: Bad Breath—A multidisciplinary Approach, Eds: D. van Steenberghe, M. Rosenberg, Leuven University Press, 1996) and has been adapted to improve reproducibility.
A sterile liquid medium inoculated with fresh morning saliva is incubated for a few days at 37° C. and then sniffed by a panel of testers.
An intensive odour characteristic of bad breath has formed. Uninoculated controls have only a faint odour of the medium.
As a control for the tests, Triclosan® (5-chloro-2-(2,4-dichlorophenoxy)phenol) was added to inoculated samples in a concentration of 0.05%.

[1] = system: total number of bacteria in the samples of saliva; experiment: Further test: total number of bacteria in samples of saliva; settings: concentration of 1000 ppm
Veilonella parvula = experiment: Minimum inhibiting concentration, serial-dilution test
Protocol: (§1) Determination of the Minimum Inhibiting Concentration 5 The minimum inhibiting concentration (MIC) of beta-homocyclocitral was determined in a serial-dilution test against various bacteria.

Escherichia coli [2] = experiment: as above
Protocol: as §1

Streptococcus mutans = experiment: as above
Protocol: as §1

Porphyromonas gingivalis = experiment: as above
Protocol: as §1

Pseudomonas aeruginosa = experiment: as above
Protocol: as §1

Staphylococcus aureus = experiment: as above
Protocol: as §1

Fusobacterium nucleatum = experiment: as above
Protocol: as §1

Prevotella intermedia = experiment: as above
Protocol: as §1

Pseudomonas aruginosa = experiment: Further tests at 1000 ppm; settings: concentration of 1000 ppm
Escherichia coli [3] = experiment: Further tests at 1000 ppm; settings: concentration of 1000 ppm
[4] = 0.05% added to inoculated samples at the start of the test, 37° C., a few days

With `Oc1cc(Cl)ccc1Oc1ccc(Cl)cc1Cl` [Triclosan®, 5-chloro-2-(2,4-dichlorophenoxy)phenol, reference compound] the “odour after the incubation period” value (fresh morning saliva; [4]) was “same faint odour of medium as the uninoculated samples”.

`CC1=C(CC=O)C(C)(C)CCC1` [beta-homocyclocitral, 2,6,6-trimethyl-1-cyclohexene-1-acetaldehyde] was tested, and the “reduction of the total number of bacteria in samples of saliva” value [1] was “no significant reduction”, the Type (Veilonella parvula) was “bactericidal action” and the MIC (Veilonella parvula; bactericidal) was 500 µg/mL (≈ 3010 µM). The MIC (Escherichia coli [2]) was > 1000 µg/mL, the Type (Escherichia coli [2]) was “No action up to 1000 ppm” and the Type (Streptococcus mutans) was “bactericidal action”. For the same compound, the MIC (Streptococcus mutans; bactericidal) was 500 µg/mL (≈ 3010 µM), the MIC (Porphyromonas gingivalis) was 125 µg/mL (≈ 752 µM) and the MIC (Pseudomonas aeruginosa) was > 1000 µg/mL. For the same compound, the Type (Pseudomonas aeruginosa) was “No action up to 1000 ppm”, the MIC (Staphylococcus aureus) was 500 µg/mL (≈ 3010 µM) and the Type (Fusobacterium nucleatum) was “bactericidal action”. For the same compound, the MIC (Fusobacterium nucleatum; bactericidal) was 250 µg/mL (≈ 1500 µM), the MIC (Prevotella intermedia; bactericidal) was 250 µg/mL (≈ 1500 µM) and the MIC (Prevotella intermedia; bacteriostatic) was 125 µg/mL (≈ 752 µM). The “reduction with regard to Pseudomonas aruginosa” value (Pseudomonas aruginosa) was “no significant reduction”, the “odour after the incubation period” value (fresh morning saliva; 0.01% added to inoculated samples) was “a changed characteristic odour or a mixed odour was discernible in some cases” and the “odour after the incubation period” value (fresh morning saliva; 0.025% added to inoculated samples) was “no odour”. For the same compound, the “odour after the incubation period” value (fresh morning saliva; [4]) was “a slight characteristic odour is discernible”, the “odour at sensory assessment” value (fresh morning saliva; 0.05% added to the inoculated medium just one hour before the sensory assessment) was “unpleasant mixed odour of bad breath and a faint beta-homocyclocitral note” and the minimum effective concentration (fresh morning saliva; no odour after the incubation period) was 0.025%. The “reduction with regard to Escherichia coli” value (Escherichia coli [3]) was “no significant reduction”.

— patent US20080063610A1, “Use of Beta-Homocyclocitral as an Agent Against Bad Breath” (SYMRISE GMBH & CO. KG, priority 2004, published 2008)
